Results on six compounds are retold here after patent publication US11739077B2, “Small molecule inhibitors of ubiquitin specific protease 1 (USP1) and uses thereof” (Insilico Medicine IP Limited, priority 2021, dated 2023).

A value given as a limit tells only on which side of the number the result lay.

The target in test [1] is Human recombinant USP1/UAF1 (Homo sapiens (Human), UniProt O94782). In words: Enzymatic assay, USP1/UAF1 with Ubiquitin Rhodamine 110. The class given is biochemical. The note with it: 2 nM USP1/UAF1, 500 nM Ubiquitin Rhodamine 110, 15 minutes preincubation at RT. On the procedure:
Human recombinant USP1/UAF1 expressed in baculovirus infected Sf21 cells were used (R&D, E-568-050). Test compound and/or vehicle was incubated with 2 nM of USP1/UAF1 in modified HEPES buffer pH 8.0 for 15 minutes at RT. The reaction was initiated by addition of 500 nM of Ubiquitin Rhodamine 110 (R&D, U-555-050) for kinetic reading. Slope change of fluorescence intensity was read spectrofluorimetrically at 485 nm/535 nm.

In a further test the test system is MDA-MB-436 cells. Briefly: MDA-MB-436 breast cancer cell proliferation assay (CellTiter-Glo). The class given is cell-based. The note with it: Homo sapiens, 168 h, 7 days. On the procedure: MDA-MB-436 cells were grown in Leibovitz's L-15 medium with 10 ug/ml insulin, 16 ug/ml glutathione, 10% FBS. Cells were passaged at subconfluence after trypsinization and maintained in incubators at 37° C. in a humidified atmosphere with 5% CO2.
Cell proliferation was determined using CellTiter-Glo® Luminescent Cell Viability Assay (Promega, #G7573). MDA-MB-436 cells were seeded in 384-well plates and allowed to attach for 24 h. Compounds were added into 384-well plate by ECHO, and incubated at 37° C. in a humidified atmosphere with 5% CO2. After 7 days, CellTiter-Glo was added into 384 well plates, contents were mixed on an orbital shaker at […] for 2 min before centrifuging the plate for 2 min at 1000 rpm. After incubation at RT for 30 min, luminescence was read on envision.
In general terms: In ATP-based viability assays light output follows the ATP content of the culture.

Chain of Human recombinant USP1/UAF1 (O94782 whole entry): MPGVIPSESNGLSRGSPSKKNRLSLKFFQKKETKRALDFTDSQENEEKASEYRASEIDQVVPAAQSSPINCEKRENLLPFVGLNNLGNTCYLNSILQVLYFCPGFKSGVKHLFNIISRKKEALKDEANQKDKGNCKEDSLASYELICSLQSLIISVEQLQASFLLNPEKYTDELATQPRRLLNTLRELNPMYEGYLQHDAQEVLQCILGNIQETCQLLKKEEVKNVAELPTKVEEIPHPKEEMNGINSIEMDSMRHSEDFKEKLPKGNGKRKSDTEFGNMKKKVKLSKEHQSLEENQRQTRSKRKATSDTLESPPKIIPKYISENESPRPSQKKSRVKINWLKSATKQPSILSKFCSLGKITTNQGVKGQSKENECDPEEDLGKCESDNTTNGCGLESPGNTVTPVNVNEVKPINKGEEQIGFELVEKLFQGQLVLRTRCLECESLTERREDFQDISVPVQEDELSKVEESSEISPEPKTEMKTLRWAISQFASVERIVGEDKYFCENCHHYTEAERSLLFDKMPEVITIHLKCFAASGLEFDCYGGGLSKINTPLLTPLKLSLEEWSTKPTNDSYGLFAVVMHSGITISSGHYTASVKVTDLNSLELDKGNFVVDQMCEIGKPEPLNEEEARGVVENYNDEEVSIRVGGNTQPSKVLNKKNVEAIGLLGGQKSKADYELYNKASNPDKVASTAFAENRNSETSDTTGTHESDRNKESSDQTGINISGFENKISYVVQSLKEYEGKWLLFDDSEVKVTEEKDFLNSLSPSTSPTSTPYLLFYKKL
Chain of Human recombinant USP1/UAF1 (Q8TAF3 whole entry partner): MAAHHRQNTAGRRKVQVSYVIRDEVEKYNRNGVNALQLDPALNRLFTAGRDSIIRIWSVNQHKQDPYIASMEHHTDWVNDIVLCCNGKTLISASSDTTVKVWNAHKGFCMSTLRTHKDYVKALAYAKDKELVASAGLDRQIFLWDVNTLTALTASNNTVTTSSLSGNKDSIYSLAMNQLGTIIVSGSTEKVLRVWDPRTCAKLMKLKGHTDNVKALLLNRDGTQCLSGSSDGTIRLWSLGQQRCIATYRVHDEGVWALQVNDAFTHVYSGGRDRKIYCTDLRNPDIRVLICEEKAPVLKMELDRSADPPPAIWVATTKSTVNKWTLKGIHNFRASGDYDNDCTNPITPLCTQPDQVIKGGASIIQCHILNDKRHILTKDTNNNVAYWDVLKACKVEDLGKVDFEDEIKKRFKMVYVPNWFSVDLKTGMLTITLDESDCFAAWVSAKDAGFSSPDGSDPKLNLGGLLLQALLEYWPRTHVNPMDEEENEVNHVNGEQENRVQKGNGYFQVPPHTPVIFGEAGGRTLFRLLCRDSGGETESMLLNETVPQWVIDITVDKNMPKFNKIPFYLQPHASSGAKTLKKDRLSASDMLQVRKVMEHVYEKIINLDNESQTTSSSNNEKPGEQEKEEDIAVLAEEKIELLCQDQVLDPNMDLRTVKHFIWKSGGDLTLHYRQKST

For orientation: IC50 means the concentration that gives 50% inhibition. As to `COc1ncnc(C2CC2)c1-c1nn(C)c2c1CN(c1ncc(-c3nc(C(F)(F)F)cn3C)cn1)CC2` [Example 27, 3-(4-cyclopropyl-6-methoxypyrimidin-5-yl)-1-methyl-5-(5-(1-methyl-4-(trifluoromethyl)-1H-imidazol-2-yl)pyrimidin-2-yl)-4,5,6,7-tetrahydro-1H-pyrazolo[4,3-c]pyridine], the half-inhibitory concentration (IC50) (in test [1]; in the test with MDA-MB-436 cells) was under 50 nM in each case.

`COc1ncnc(C2CC2)c1-c1nn(C)c2c1CN(c1cnc(-c3nc(C(F)(F)F)cn3C)cn1)CC2` [Example 28, 3-(4-cyclopropyl-6-methoxypyrimidin-5-yl)-1-methyl-5-(5-(1-methyl-4-(trifluoromethyl)-1H-imidazol-2-yl)pyrazin-2-yl)-4,5,6,7-tetrahydro-1H-pyrazolo[4,3-c]pyridine]: the IC50 (in test [1]; with MDA-MB-436 cells) was under 50 nM each time.

Consider `COc1ncnc(C2CC2)c1-c1nn(C)c2c1CN(c1ccc(-c3nc(C(F)(F)F)cn3C)nn1)CC2` [Example 29, 3-(4-cyclopropyl-6-methoxypyrimidin-5-yl)-1-methyl-5-(6-(1-methyl-4-(trifluoromethyl)-1H-imidazol-2-yl)pyridazin-3-yl)-4,5,6,7-tetrahydro-1H-pyrazolo[4,3-c]pyridine], for which the IC50 (in test [1]; with MDA-MB-436 cells) was 50 to 1000 nM each time.

As to `[2H]C([2H])([2H])n1nc(-c2c(OC)ncnc2C2CC2)c2c1CCN(c1ccc(-c3nc(C(F)(F)F)cn3C)c(F)c1)C2` [Example 30, 3-(4-cyclopropyl-6-methoxypyrimidin-5-yl)-5-(3-fluoro-4-(1-methyl-4-(trifluoromethyl)-1H-imidazol-2-yl)phenyl)-1-(methyl-d3)-4,5,6,7-tetrahydro-1H-pyrazolo[4,3-c]pyridine], the IC50 (in test [1]; in the test on MDA-MB-436 cells) was under 50 nM in each case.

As for `COc1ncnc(C2CC2)c1-c1nn(C(F)F)c2c1CN(c1ccc(-c3nc(C(F)(F)F)cn3C)cn1)CC2` [Example 31, 3-(4-cyclopropyl-6-methoxypyrimidin-5-yl)-1-(difluoromethyl)-5-(5-(1-methyl-4-(trifluoromethyl)-1H-imidazol-2-yl)pyridin-2-yl)-4,5,6,7-tetrahydro-1H-pyrazolo[4,3-c]pyridine], the values for the concentration for half-maximal inhibition (IC50) (in test [1]; in the test on MDA-MB-436 cells) were under 50 nM and 50 to 1000 nM, respectively.

Consider `COc1ncnc(C2CC2)c1-c1nn(C(F)F)c2c1CN(c1ccc(-c3nc(C(F)(F)F)cn3C(C)C)cn1)CC2` [Example 32, 3-(4-cyclopropyl-6-methoxypyrimidin-5-yl)-1-(difluoromethyl)-5-(5-(1-isopropyl-4-(trifluoromethyl)-1H-imidazol-2-yl)pyridin-2-yl)-4,5,6,7-tetrahydro-1H-pyrazolo[4,3-c]pyridine], for which the IC50 is under 50 nM in test [1] and 50 to 1000 nM in the test on MDA-MB-436 cells.
